Test results reported in US9241968B2, “Nonapeptide with anti-tumour activity” (Lytix Biopharma AS, priority 2008, dated 2016).
Non-standard residues stand in square brackets, D forms with d. Residues, ends and D or L forms follow the SMILES beside them. Bip = N[C@@H](Cc1ccc(-c2ccccc2)cc1)C(=O)O; dBip = N[C@H](Cc1ccc(-c2ccccc2)cc1)C(=O)O; Dip = N[C@H](C(=O)O)C(c1ccccc1)c1ccccc1

Tests used:
[1] = system: panel of 10 lymphoma cell lines; assay: In vitro cytotoxic activity on lymphoma cells, MTS assay, panel summary; type: cell-based, human; details: range stated in conclusions
Source text: (§1) • To determine the concentrations of five novel compounds to obtain a 50% inhibition of proliferation (IC50) against a panel of 10 lymphoma cell lines. 2. Materials and Methods 2.1. Test Substances 2.1.1. Test Substances • Test substances, LTX-302, LTX-313, LTX-315, LTX-320 and LTX-329 (see Table 1) provided in powder form. 2.1.2. Positive Control • Triton X-100 was used as positive control and supplied by Oncodesign (Dijon, France) from Sigma (Saint Quentin Fallavier, France). 2.1.3. Drug vehicle and storage condition • Compounds were stored at 4° C. Powder was first dissolved in serum free culture medium (RPMI 1640, Lonza, Verviers, Belgium) and further diluted using serum-free culture medium to reach appropriate dilutions. Stock solution was not stored and was prepared fresh the day of experiment. • 1% (final concentration) Triton X-100 was obtained by dilution using culture medium. 2.2. Tumor Cell Lines and Culture Conditions 2.2.1. Tumor Cell Lines
Tumor cells were grown as suspensions at 37° C. in a humidified atmosphere (5% CO2, 95% air). The culture medium for each cell line is described in the Table 3 below. For experimental use, cells were counted in a hemocytometer and their viability was assessed by 0.25% trypan blue exclusion.
Tumor cells were plated in 96-well flat-bottom microtitration plates (Nunc, Dutscher, Brumath, France) and incubated at 37° C. for 24 hours before treatment in 190 μl of drug-free and FBS-free culture medium.
Tumor cells were incubated for 4 hours with 10 concentrations of compounds in ¼ dilution step with a top dose of 400 μM (range 4×10^−4 to […]), with 1% (final concentration) Triton X-100 as positive control and FBS-free culture medium as negative control. The cells (190 μl) were incubated in a 200 μl final volume of FBS-free culture medium containing test substances at 37° C. under 5% CO2.
Three independent experiments were performed, each concentration being issued from quadruplicate. Control cells were treated with vehicle alone. At the end of treatments, the cytotoxic activity was evaluated by a MTS assay (see §3.3 below). […]
(§2) At the end of the cells treatment, 40 μl of a 0.22 μm filtered freshly combined solution of MTS (20 ml at 2 mg/ml, Ref G1111, Batch 235897, Exp March/2009, Promega, Charbonnières, France) and PMS (1 ml at 0.92 mg/ml, Ref P9625, Batch 065K0961, Sigma) in Dulbecco's Phosphate Buffered Saline (DPBS, Ref 17-513Q, Batch 6MB0152, Cambrex), were added in each well. […] Absorbency (OD) were measured at 490 nm in each well using VICTOR^3™ 1420 multilabeled counter (Wallac, PerkinElmer, Courtaboeuf, France).
4.1. IC50 Data was Determined as in Example 1

[2] = system: panel of 37 human cancer cell lines; assay: In vitro cytotoxic activity, MTS assay, panel summary; type: cell-based; details: range stated in conclusions
Description: as §1, with “2.” for “• To determine the concentrations of five novel compounds to obtain a 50% inhibition of proliferation (IC50) against a panel of 10 lymphoma cell lines. 2.”, “control,” for “control and”, “Vehicle” for “vehicle”, “Storage Conditions” for “storage condition”
Tumor cells were grown as adherent monolayers or as suspensions at 37° C. in a humidified atmosphere (5% CO2, 95% air). The culture medium was RPMI 1640 containing 2 mM L-glutamine (Lonza, Belgium) and supplemented with 10% fetal bovine serum (FBS, Lonza). For experimental use, the adherent cells were detached from the culture flask by a 5-minute treatment with trypsin-versene (Lonza), diluted in Hanks' medium without calcium or magnesium (Lonza) and neutralized by addition of complete culture medium. Cells were counted in a hemocytometer and their viability was assessed by 0.25% trypan blue exclusion.
Tumor cells were plated in 96-well flat-bottom microtitration plates (Nunc, Dutscher, Brumath, France) and incubated at 37° C. for 24 hours before treatment in 190 μl of drug-free culture medium supplemented or not with 10% FBS for adherent or suspension growing cell lines, respectively.
The adherent cell lines were washed once with 200 μl FBS-free culture medium before treatment. […]
Three (3) independent experiments were performed, each concentration being tested in quadruplicate. […] At the end of treatments, the cytotoxic activity was evaluated by a MTS assay (see §3.3). […]
as §2, with “France). […]” for “France).”
The dose-response curves were plotted using XLFit 3 (IDBS, United Kingdom). The IC50 determination values were calculated using the XLFit 3 software from semi-log curves. […]

[3] = system: murine A20 B-cell lymphoma; assay: Intratumoral treatment of murine A20 B-cell lymphoma tumours in mice; type: in vivo; details: Group 1 (1 mg) compared to the other two groups
Description: The aim of the study was to investigate the effect of LTX-315 at different dose levels on a murine A20 B-cell lymphoma in mice.
The administration took place by intratumoral injection of LTX-315 dissolved in sterile saline.
Female mice were inoculated subcutaneously in the abdomen with 5 million murine A20 cells (ATCC, LGC Promochem AB, Middlesex, England) in a volume of 50 μl. The mice were divided into four groups (see Table 5 below for details). The intratumoral treatment was initiated when the tumours had reached the desired size of approximately 5 mm in diameter (minimum of 20 mm^2).
Three dose levels of LTX-315, 1 mg (Group 1), 0.5 mg (Group 2) and 0.25 mg (Group 3) per injection, were investigated. The volume was 50 μl for all injections. LTX-315 was dissolved in sterile 0.9% NaCl water solution. This vehicle was used as control (Group 4). All four groups received three injections.
A caliper was used for tumour size measurements and weighing and physical examination were used as health control.
Animals: Specific pathogen-free female Balb/c mice, 6-8 weeks old, supplied form Harlan (England, UK)

Compound | IC50 values against the 10 human lymphoma cell lines (cytolytic activity), in words [1] | IC50 values against 37 human cancer cell lines (cytolytic activity), in words [2] | necrosis and wound formation [3]
NCCCC[C@H](NC(=O)[C@H](Cc1c[nH]c2ccccc12)NC(=O)[C@H](CCCCN)NC(=O)[C@H](CCCCN)NC(=O)[C@@H](NC(=O)[C@H](Cc1c[nH]c2ccccc12)NC(=O)[C@H](CCCCN)NC(=O)[C@H](CCCCN)NC(=O)[C@@H](N)Cc1c[nH]c2ccccc12)C(c1ccccc1)c1ccccc1)C(N)=O [LTX-302, W-K-K-W-Dip-K-K-W-K-NH2] (H-WKKW[Dip]KKWK-NH2; N-terminus assumed) | micromolar range | micromolar to ten micromolar range | –
NCCCC[C@H](NC(=O)[C@H](Cc1c[nH]c2ccccc12)NC(=O)[C@H](Cc1c[nH]c2ccccc12)NC(=O)[C@H](CCCCN)NC(=O)[C@H](CCCCN)NC(=O)[C@H](Cc1c[nH]c2ccccc12)NC(=O)[C@H](Cc1ccc(-c2ccccc2)cc1)NC(=O)[C@H](CCCCN)NC(=O)[C@@H](N)CCCCN)C(N)=O [LTX-313, K-K-Bip-W-K-K-W-W-K-NH2] (H-KK[Bip]WKKWWK-NH2; N-terminus assumed) | micromolar range | micromolar to ten micromolar range | –
NCCCC[C@H](NC(=O)[C@@H](NC(=O)[C@H](Cc1c[nH]c2ccccc12)NC(=O)[C@H](CCCCN)NC(=O)[C@H](CCCCN)NC(=O)[C@H](Cc1c[nH]c2ccccc12)NC(=O)[C@H](Cc1c[nH]c2ccccc12)NC(=O)[C@H](CCCCN)NC(=O)[C@@H](N)CCCCN)C(c1ccccc1)c1ccccc1)C(N)=O [LTX-315, K-K-W-W-K-K-W-Dip-K-NH2] (H-KKWWKKW[Dip]K-NH2) | – | – | stronger necrosis and more wound formation
N=C(N)NCCC[C@H](NC(=O)[C@H](Cc1c[nH]c2ccccc12)NC(=O)[C@H](Cc1c[nH]c2ccccc12)NC(=O)[C@H](CCCNC(=N)N)NC(=O)[C@H](CCCNC(=N)N)NC(=O)[C@@H](NC(=O)[C@H](Cc1c[nH]c2ccccc12)NC(=O)[C@H](CCCNC(=N)N)NC(=O)[C@@H](N)CCCNC(=N)N)C(c1ccccc1)c1ccccc1)C(N)=O [LTX-320, R-R-W-Dip-R-R-W-W-R-NH2] (H-RRW[Dip]RRWWR-NH2; N-terminus assumed) | micromolar range | micromolar to ten micromolar range | –
NCCCC[C@@H](N)C(=O)N[C@H](CCCCN)C(=O)N[C@H](Cc1ccc(-c2ccccc2)cc1)C(=O)N[C@H](Cc1c[nH]c2ccccc12)C(=O)N[C@H](CCCCN)C(=O)N[C@H](CCCCN)C(=O)N[C@H](Cc1c[nH]c2ccccc12)C(=O)N[C@H](Cc1c[nH]c2ccccc12)C(=O)N[C@H](CCCCN)C(N)=O [LTX-329, k-k-bip-w-k-k-w-w-k-NH2] (H-[dK][dK][dBip][dW][dK][dK][dW][dW][dK]-NH2; N-terminus assumed) | micromolar range | micromolar to ten micromolar range | –
